# Assay results reported in patent US7166296B2, “Pharmaceutical formulations and ligands for use therein; mimetics for UEA-1” (Sarlan, Ltd., priority 2001, dated 2007).
# Legend:
# [1] = test system: UEA-1 binding sites on Caco-2 cell membrane preparations; experiment: Two tier competition assay: compound incubated alone with membranes, biotinylated UEA-1 added in next step; parameters: species or system human; conditions: for Av % Inhibition / Avg % Inhibition: Two Tier Assay; for Av % Inhibition: library MSI 22; for Avg % Inhibition: library MSI 26
# Protocol: (§1) The epithelial cell binding ability of compounds and mixtures obtained from synthetic combinatorial libraries was determined by competition assays. These assays were set up to measure the inhibition of binding of biotinylated UEA-1 to membrane preparations of the epithelial cell line Caco-2 (colon carcinoma cells-2), by compounds and mixtures of the combinatorial libraries. This cell line is a conventional model for epithelial cells.
# (§2) Two competition inhibition assays were used in this case, namely single tier and two tier assays. These assays differed from each other in that in the single tier assay, the mixtures/compounds and the biotinylated UEA-1 were incubated together with the Caco-2 cell membrane preparations, while in case of the two-tier assay, the mixture/compounds were allowed to incubate alone with the cell membranes in the absence of biotinylated UEA-1, which was added in the next step. Addition of the extra step in the two-tier assay was to ensure that the compounds inhibiting the binding of biotinylated UEA-1 to the Caco-2 cell membranes were doing so by themselves binding to surface receptors on the Caco-2 cells and not to the biotinylated UEA-1. Each assay will be described in detail.
# (§3) • 1. Confluent Caco-2 cell monolayers (grown in 75 cm^2 flasks for up to 1 week at 37° C. and 5% CO2) were washed twice in Dulbecco's PBS (DPBS). • 2. Cell monolayers were treated with 10 mM EDTA-DPBS for 5–10 min at 37° C. and cells were harvested by centrifugation at 1000 rpm for 5 min. • 3. Cells were washed 3 times in DPBS. • 4. […] The cells were homogenised for 30 sec. • 6. The homogenates were centrifuged in hard walled tubes at 40,000 rpm for 45 min at 4° C. • 7. […] The supernatant was removed and stored on ice. The procedure was repeated adding the second supernatant to the first. • 8. The protein concentration was determined using e.g. a Bio-Rad protein assay. • 9. All fractions were stored at −80° C. prior to use. Single Tier Assays: • 1. 96-well microtiter plates were coated with membrane preparations of Caco-2 cells either by allowing them to incubate on the plates for 2½ hours at room temperature or by incubating them overnight at 4° C. 100 μl of 10 μg/ml (in 0.05 M carbonate buffer, pH 9.6) of membrane preparation was added to each well. • 2. The plates were flicked out, patted dry and blocked with bovine serum albumin (BSA)/DPBS (200 μl/well) for 1 to 4 hours at room temperature after which they were washed three times in water. • 3. […] Control wells were also set up in which the Caco-2 cell membrane preparations were incubated with unconjugated UEA-1. […] Following overnight incubation the plates were washed thoroughly (3–6 times). The plates were flicked out, patted dry and biotinylated UEA-1 was detected with commercial Streptavidin conjugated to horseradish peroxidase (HRP) (CalBiochem). […] The plates were left to incubate for an hour at room temperature. • 6. The plates were then washed 3–6 times and the biotin-streptavidin binding was detected by adding an HRP substrate OPD (orthophenyl diamine) to each well. 100 μl/well of this substrate at a final concentration of 1.6 mg/ml was added to each well. Before adding to the wells, this substrate was activated by addition of 50 μl of 3% H2O2 per plate and the reaction was allowed to develop in the dark. • 7. The reaction was stopped by adding 50 μl of 4 N H2SO4 to each well after approximately 5–10 minutes or when sufficient colour had developed. The OD490 (absorbance at 490 nm) of each well was measured using a conventional 96 well plate reading spectrophotometer. Two Tier Assays: • 1. 96 well plates were coated with Caco-2 cell membrane preparations in the same manner as described in the single tier assay. • 2. […] 100 μl at these final concentrations were added to each well. • 4. The plates were then left to incubate overnight, a step that would allow the mixtures and compounds to interact with the Caco-2 cell membranes without the presence of the competitor (biotinylated UEA-1) itself. • 5. […]
# [2] = test system: UEA-1 binding sites on Caco-2 cell membrane preparations; experiment: Single tier competition assay: inhibition of biotinylated UEA-1 binding, compound and biotinylated UEA-1 incubated together; parameters: species or system human; conditions: for Av % Inhibition / Avg % Inhibtion: Single Tier Assay; for Av % Inhibition: library MSI 22; for Avg % Inhibtion: library MSI 26
# Protocol: as §1, §2, §3
# [3] = library MSI 27, read-out: Two Tier Assay IC50
# [4] = library MSI 27, read-out: Single Tier Assay IC50
# [5] = Table 8, galloyl constructs, read-out: IC 50 (uM) 2nd tier
# [6] = Table 8, galloyl constructs, read-out: IC 50 (uM) 1st tier (converted)
smiles,measurement,setting,value
COc1cc(C(=O)NCCCCC(NC(=O)c2cc(OC)c(O)c(OC)c2)C(=O)NCCCCC(NC(=O)C(CCCCNC(=O)c2cc(OC)c(O)c(OC)c2)NC(=O)c2cc(OC)c(O)c(OC)c2)C(N)=O)cc(OC)c1O (stereo not shown) [Cpd 17],Two Tier Assay IC50,[1]; library MSI 27,95.95 µg/mL
same,IC50,[1]; [3],85.6 µM
same,Single Tier Assay IC50,[2]; library MSI 27,145.80 µg/mL
same,IC50,[2]; [4],130 µM
NC(=O)C(CCCCNC(=O)C(CCCCNC(=O)c1cc(O)cc(O)c1)NC(=O)c1cc(O)cc(O)c1)NC(=O)C(CCCCNC(=O)c1cc(O)cc(O)c1)NC(=O)c1cc(O)cc(O)c1 (stereo not shown) [Cpd 24],IC50,[1]; [3],265 µM
same,IC50,[2]; [4],265 µM
"CCOc1ccc(C[C@H](CNC)N(C)C[C@@H](CCCNC(=N)NS(=O)(=O)c2ccc(C)cc2)NC(=O)c2cc(O)c(O)c(O)c2)cc1 [D-Tyr (Et), D-Arg(Tos), Gallic Acid]",Av % Inhibition,[1]; 62.5 μg/ml,30%
same,Av % Inhibition,[1]; 250 μg/ml,61%
same,Av % Inhibition,[2]; 62.5 μg/ml,27.2%
same,Av % Inhibition,[2]; 250 μg/ml,48%
"CNC[C@@H](Cc1ccc2ccccc2c1)N(C)C[C@H](NC(=O)c1cc(O)c(O)c(O)c1)C(C)C [D-Napala, D-Val, Gallic Acid]",Av % Inhibition,[1]; 62.5 μg/ml,24.2%
same,Av % Inhibition,[1]; 250 μg/ml,46.9%
same,Av % Inhibition,[2]; 62.5 μg/ml,4.7%
same,Av % Inhibition,[2]; 250 μg/ml,26.8%
CC(=O)NC(CCCNC(=O)c1cc(O)c(O)c(O)c1)C(=O)NC(CCCNC(=O)c1cc(O)c(O)c(O)c1)C(=O)NC(CCCNC(=O)c1cc(O)c(O)c(O)c1)C(N)=O (stereo not shown) [MSI 34 #15],IC 50 (ug/ml) 2nd tier,"[1]; Table 8, galloyl constructs",2 µg/mL
same,IC50,[1]; [5],2 µM
same,IC 50 (ug/ml) 1st tier,"[2]; Table 8, galloyl constructs",8 µg/mL
same,IC50,[2]; [6],9 µM
COc1ccc(C(=O)NCCCC[C@@H](NC(=O)[C@@H](CCCCNC(=O)c2ccc(OC)c(OC)c2)NC(=O)[C@@H](CCCCNC(=O)c2ccc(OC)c(OC)c2)NC(=O)c2ccc(OC)c(OC)c2)C(N)=O)cc1OC [Cpd 42],Two Tier Assay IC50,[1]; library MSI 27,113.80 µg/mL
same,IC50,[1]; [3],108 µM
same,Single Tier Assay IC50,[2]; library MSI 27,107.00 µg/mL
same,IC50,[2]; [4],101 µM
CC(=O)NC(CCCCNC(=O)c1cc(O)c(O)c(O)c1)C(N)=O (stereo not shown) [Cpd 14],IC 50 (ug/ml) 2nd tier,"[1]; Table 8, galloyl constructs",211 µg/mL
same,IC50,[1]; [5],160 µM
same,Two Tier Assay IC50,[1]; library MSI 27,91.52 µg/mL
same,IC50,[1]; [3],270 µM
same,IC 50 (ug/ml) 1st tier,"[2]; Table 8, galloyl constructs",72 µg/mL
same,IC50,[2]; [6],54 µM
same,Single Tier Assay IC50,[2]; library MSI 27,129.70 µg/mL
same,IC50,[2]; [4],382 µM
"COC(=O)c1cc(O)c(O)c(O)c1 [Methyl 3,5,4-trihydroxybenzoate, reference compound]",Avg % Inhibition,[1]; 62.5 μg/ml,−11%
same,Avg % Inhibition,[1]; 250 μg/ml,−8%
same,Avg % Inhibtion,[2]; 62.5 μg/ml,1%
same,Avg % Inhibtion,[2]; 250 μg/ml,4.5%
"CNC[C@@H](Cc1ccc2ccccc2c1)N(C)C[C@H](Cc1ccc(Cl)cc1)NC(=O)c1cc(O)c(O)c(O)c1 [D-Napala, L-pCl-Phe, Gallic Acid]",Av % Inhibition,[1]; 62.5 μg/ml,23.4%
same,Av % Inhibition,[1]; 250 μg/ml,43.3%
same,Av % Inhibition,[2]; 62.5 μg/ml,−14.7%
same,Av % Inhibition,[2]; 250 μg/ml,7.4%
"NC(=O)c1cc(O)cc(O)c1 [3,5-dihydroxybenzamide, reference compound]",Avg % Inhibition,[1]; 62.5 μg/ml,−7%
same,Avg % Inhibition,[1]; 250 μg/ml,−2%
same,Avg % Inhibtion,[2]; 62.5 μg/ml,−1%
same,Avg % Inhibtion,[2]; 250 μg/ml,2.4%
"O=C(O)c1cc(O)cc(O)c1 [3,5-dihydroxybenzoic Acid, reference compound]",Avg % Inhibition,[1]; 62.5 μg/ml,−5%
same,Avg % Inhibition,[1]; 250 μg/ml,−7%
same,Avg % Inhibtion,[2]; 62.5 μg/ml,0%
same,Avg % Inhibtion,[2]; 250 μg/ml,1.1%
